From article PMC9525708, “Mechanistic insight into the role of mevalonate kinase by a natural fatty acid-mediated killing of Leishmania donovani” (Scientific Reports, 2022)
pKd: −log10 of the molar value.

Assays:
[1] = target: T1, mevalonate kinase (MevK, LD-MevK) (Leishmania donovani, UniProt A0A3S7X459); assay: ITC (endothermic binding constant); also CD and enzyme kinetics (Km […])
T1 construct: gene LdCL_310011300; recombinant LD-MevK (pET28a, Ni-NTA purified, ~37 kDa)
T1 sequence (A0A3S7X459 1-329): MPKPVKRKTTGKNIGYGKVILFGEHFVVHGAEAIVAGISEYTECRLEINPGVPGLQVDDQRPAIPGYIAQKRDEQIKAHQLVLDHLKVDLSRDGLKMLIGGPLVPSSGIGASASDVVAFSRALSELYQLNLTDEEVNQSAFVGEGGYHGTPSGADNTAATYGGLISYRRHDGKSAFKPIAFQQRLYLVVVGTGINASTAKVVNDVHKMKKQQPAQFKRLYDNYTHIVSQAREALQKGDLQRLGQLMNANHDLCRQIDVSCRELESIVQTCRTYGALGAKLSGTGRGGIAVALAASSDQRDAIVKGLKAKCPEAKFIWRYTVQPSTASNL

[2] = target: T1, mevalonate kinase (MevK, LD-MevK); assay: pyruvate kinase-lactate dehydrogenase coupled assay, purified enzyme, […] compound; assay type: biochemical
[3] = target: T1, mevalonate kinase (MevK, LD-MevK); assay: ITC (exothermic binding constant); also CD, and coupled PK-LDH assay with purified enzyme ([…] inhibition at […], competitive); conditions: read-out: ITC (exothermic binding constant); also CD, and coupled PK-LDH assay with purifi

| SMILES | inhibition at 100 µM [2] | also measured |
| --- | --- | --- |
| C[C@@](O)(CCO)CC(=O)O [MEV, 3,5-Dihydroxy-3-methylpentanoic acid] |  | pKd [1]: 4.20 |
| CCCCC(C)CCC(=O)O (stereo not shown) [4m-CA, 4-methyl octanoic acid] | ~65% |  |
| CCCCCCCC(=O)OC [1m-CAE, methyl octanoate] | ~65% |  |
| CCCCCCCC(=O)O [CA, Caprylic acid] |  | pKd [3]: 4.00 |
